Usually EC50 stands for the concentration that produces a half-maximal response.

Each structure is given as a SMILES string.

Here are results for 60 molecules from patent publication US10759816B2, “Heterocyclic compounds as RSV inhibitors” (Enanta Pharmaceuticals, Inc., priority 2016, dated 2020).

This test relates to genotype A, "Long" strain RSV. Put plainly: RSV-A in vitro cytoprotection assay in HEp-2 cells (ATPlite readout of cell viability). Format: cell-based, Human respiratory syncytial virus. The settings on record: human respiratory syncytial virus, HEp-2, HEp-2 cells, genotype A “Long” strain RSV, cytoprotection; read-out: Human RSV-A (“Long” strain) EC50. In outline:
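Cytoprotection measured as ATP-based luminescence (ATPlite) after 4-day incubation of RSV Long-infected HEp-2 cells (8,000/well, 10% FBS DMEM) with 2-fold serial compound dilutions in duplicate. Identically treated virus-free plate gives cytotoxicity; EC50 calculated from viability.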
(In general: Cellular ATP, detected with luciferase, serves as a proxy for viable cell number.)

As to `Cc1cccc(F)c1NC(=O)c1cc2c(s1)-c1ccccc1N(C(=O)c1cccc(N3CCCN(C(=O)C4CC4)CC3)n1)CC2` [Example 388], the EC50 is less than 400 nM.

Regarding `O=C(NC1CC1)c1cc2c(s1)-c1ccccc1N(C(=O)c1cncc(N3CCOCC3)n1)CC2` [Example 53], the EC50 was 400 to 800 nM.

Turning to `Cc1cccc(F)c1NC(=O)c1cc2c(s1)-c1ccccc1N(C(=O)c1cccc(N(C)Cc3cccc(-c4ccccc4)c3)n1)CC2` [Example 352], the half-maximal effective concentration (EC50) lay within 400 to 800 nM.

As to `O=C(NC1CC1)c1cc2c(s1)-c1ccccc1N(C(=O)c1cccc(C3CCNCC3)n1)CC2` [Example 55], the EC50 was more than 800 nM.

As to `Cc1cccc(F)c1NC(=O)c1cc2c(s1)-c1ccccc1N(C(=O)c1cccc(N3C[C@@H]4CC(F)(F)C[C@@H]4C3)n1)CC2` [Example 449], the EC50 is more than 800 nM.

With `Cc1cccc(F)c1NC(=O)c1cc2c(s1)-c1ccccc1N(C(=O)c1cccc(-c3cnn4ccccc34)n1)CC2` [Example 244], the concentration giving a half-maximal response (EC50) is less than 400 nM.

Turning to `Cc1cccc(F)c1NC(=O)c1cc2c(s1)-c1cccc(F)c1N(C(=O)c1cccc(N3CCCOCC3)n1)CC2` [Example 503], the 50% effective concentration (EC50) was less than 400 nM.

For `Cc1cccc(F)c1NC(=O)c1cc2c(s1)-c1ccccc1N(C(=O)c1cccc(-c3cnn(CCN(C)C)c3C3CC3)n1)CC2` [Example 229], the EC50 was more than 800 nM.

Turning to `O=C(NC1CC1)c1cc2c(s1)-c1ccccc1N(C(=O)c1ccc3nc(CN4CCOCC4)oc3c1)CC2` [Example 11], the EC50 is more than 800 nM.

In the case of `Cc1cccc(F)c1NC(=O)c1cc2c(s1)-c1ccccc1N(C(=O)c1ccc(-c3cn(S(C)(=O)=O)c4ncccc34)cc1)CC2` [Example 268], the EC50 is more than 800 nM.

Consider `Cc1cccc(F)c1NC(=O)c1cc2c(s1)-c1ccccc1N(C(=O)c1cccc(N(CCO)C3CCC3)n1)CC2` [Example 327], for which the EC50 was less than 400 nM.

As to `Cc1cccc(F)c1NC(=O)c1cc2c(s1)-c1ccccc1N(C(=O)c1cccc(-c3cnc(C)n3C3CC3)n1)CC2` [Example 198], the concentration giving a half-maximal response (EC50) was less than 400 nM.

As to `COC(=O)n1cc(-c2cccc(C(=O)N3CCc4cc(C(=O)Nc5c(C)cccc5F)sc4-c4ccccc43)n2)c(C2CC2)n1` [Example 214], the half-maximal effective concentration (EC50) is less than 400 nM.

Take `O=C(Nc1cccc(=O)[nH]1)c1cc2c(s1)-c1ccccc1N(C(=O)c1cccc(N3CCOc4ccccc4C3)n1)CC2` [Example 304]: the EC50 is more than 800 nM.

On to `Cc1cccc(F)c1NC(=O)c1cc2c(s1)-c1ccccc1N(C(=O)c1cccc(-c3c[nH]nc3N3CCOCC3)n1)CC2` [Example 211], for which the EC50 was more than 800 nM.

On to `Cc1cccc(F)c1NC(=O)c1cc2c(s1)-c1ccccc1N(C(=O)c1cccc(N(C)C3CCOCC3)n1)CC2` [Example 362], for which the EC50 was less than 400 nM.

`Cc1cccc(F)c1NC(=O)c1cc2c(s1)-c1ccccc1N(C(=O)c1cccc(N(C)Cc3ccncc3)n1)CC2` [Example 339]: the EC50 was less than 400 nM.

On to `O=C(NC1CC1)c1cc2c(s1)-c1ccccc1N(C(=O)c1cccc(-c3ccc(C4CC4)nc3)n1)CC2` [Example 77], for which the half-maximal effective concentration (EC50) was in the range of 400 to 800 nM.

As to `N#Cc1ccc(-c2cccc(C(=O)N3CCc4cc(C(=O)NC5CC5)sc4-c4ccccc43)n2)cn1` [Example 78], the EC50 is 400 to 800 nM.

On to `Cc1cccc(F)c1NC(=O)c1cc2c(s1)-c1ccccc1N(C(=O)c1cccc(N3CCC4(COC4)C3)n1)CC2` [Example 427], for which the EC50 is more than 800 nM.

Regarding `Cc1cccc(F)c1NC(=O)c1cc2c(s1)-c1ccccc1N(C(=O)c1cccc(N3C(=O)OC[C@@H]3C(C)C)n1)CC2` [Example 475], the EC50 was less than 400 nM.

For `CCOCCNc1cccc(C(=O)N2CCc3cc(C(=O)Nc4c(C)cccc4F)sc3-c3ccccc32)n1` [Example 330], the EC50 was less than 400 nM.

For the molecule `Cc1cccc(F)c1NC(=O)c1cc2c(s1)-c1ccccc1N(C(=O)c1cccc(-c3cn[nH]c3)n1)CC2` [Example 213], the EC50 was less than 400 nM.

On to `Cc1cccc(F)c1NC(=O)c1cc2c(s1)-c1ccccc1N(C(=O)c1cccc(N3CCOc4ccc(Br)cc4C3)n1)CC2` [Example 367], for which the EC50 was less than 400 nM.

Turning to `Cc1cccc(F)c1NC(=O)c1cc2c(s1)-c1ccccc1N(C(=O)c1cccc(N3CCOc4ccccc4C3)n1)CC2` [Example 363], the EC50 was less than 400 nM.

Regarding `Cc1cccc(F)c1NC(=O)c1cc2c(s1)-c1ccccc1N(C(=O)c1ccc(-c3c[nH]c4ccccc34)cc1)CC2` [Example 272], the concentration for a half-maximal effect (EC50) was more than 800 nM.

Consider `Cc1cnc(N2CCOCC2)c(NC(=O)c2ccc(C(=O)N3CCc4cc(C(=O)Nc5c(C)cccc5F)sc4-c4ccccc43)cc2)c1` [Example 137], for which the EC50 is more than 800 nM.

For `Cc1cccc(F)c1NC(=O)c1cc2c(s1)-c1ccccc1N(C(=O)c1cccc(N3CCOc4cccc(F)c4C3)n1)CC2` [Example 368], the EC50 was less than 400 nM.

Turning to `O=C(NC1CC1)c1cc2c(s1)-c1ccccc1N(C(=O)c1ccnc(N3CCOCC3)c1)CC2` [Example 46], the EC50 was more than 800 nM.

Take `COC[C@H]1CCCN1c1cccc(C(=O)N2CCc3cc(C(=O)Nc4c(C)cccc4F)sc3-c3ccc(C)cc32)n1` [Example 499]: the EC50 is less than 400 nM.

Consider `CCOC(=O)n1cc(-c2cccc(C(=O)N3CCc4cc(C(=O)Nc5c(C)cccc5F)sc4-c4ccccc43)n2)c(C2CC2)n1` [Example 224], for which the EC50 is less than 400 nM.

In the case of `CN1Cc2cccc(Nc3cccc(C(=O)N4CCc5cc(C(=O)NC6CC6)sc5-c5ccccc54)n3)c2C1=O` [Example 412], the EC50 is more than 800 nM.

For `Cc1cccc(F)c1NC(=O)c1cc2c(s1)-c1ccccc1N(C(=O)c1cccc(N3CCC[C@@H]3c3ccccc3)n1)CC2` [Example 473], the EC50 was less than 400 nM.

With `COCCCNc1cccc(C(=O)N2CCc3cc(C(=O)NC4CC4)sc3-c3ccccc32)n1` [Example 35], the EC50 is 400 to 800 nM.

Regarding `COc1ccc(CN(C)c2cccc(C(=O)N3CCc4cc(C(=O)NC5CC5)sc4-c4ccccc43)n2)cc1` [Example 294], the EC50 was more than 800 nM.

Turning to `Cc1cccc(F)c1NC(=O)c1cc2c(s1)-c1ccccc1N(C(=O)c1cccc(NCc3ccco3)n1)CC2` [Example 335], the EC50 is less than 400 nM.

For `Cc1cccc(F)c1NC(=O)c1cc2c(s1)-c1ccc(F)cc1N(C(=O)c1cccc(N3C(=O)CC[C@@H]3CN)n1)CC2` [Example 492], the EC50 was more than 800 nM.

For `Cc1cnc(N2CC3(CCOC3)C2)c(NC(=O)c2ccc(C(=O)N3CCc4cc(C(=O)Nc5c(C)cccc5F)sc4-c4ccccc43)cc2)c1` [Example 140], the EC50 is more than 800 nM.

For `Cc1cccc(F)c1NC(=O)c1cc2c(s1)-c1ccccc1N(C(=O)c1cccc(N3CCC[C@@H]3Cc3ccccc3)n1)CC2` [Example 486], the EC50 was more than 800 nM.

As to `O=C(NC1CC1)c1cc2c(s1)-c1ccccc1N(C(=O)c1cccc(-c3cnn(C4COC4)c3)n1)CC2` [Example 158], the EC50 was more than 800 nM.

As for `Cn1cc(-c2cccc(C(=O)N3CCc4cc(C(=O)NC5CC5)sc4-c4ccccc43)n2)ccc1=O` [Example 151], the EC50 was more than 800 nM.

With `Cc1cccc(F)c1NC(=O)c1cc2c(s1)-c1ccccc1N(C(=O)c1cccc(N3CCCOCC3=O)n1)CC2` [Example 401], the EC50 was more than 800 nM.

For `Cc1cccnc1NC(=O)c1cc2c(s1)-c1ccccc1N(C(=O)c1cccc(N3CCOc4ccccc4C3)n1)CC2` [Example 301], the EC50 was less than 400 nM.

In the case of `Cc1cc(CNc2cccc(C(=O)N3CCc4cc(C(=O)Nc5c(C)cccc5F)sc4-c4ccccc43)n2)on1` [Example 349], the EC50 is less than 400 nM.

On to `Cc1cccc(F)c1NC(=O)c1cc2c(s1)-c1ccccc1N(C(=O)c1cccc(-c3ccc4nccc(Cl)c4c3)n1)CC2` [Example 189], for which the concentration for a half-maximal effect (EC50) is more than 800 nM.

Turning to `Cc1cccc(F)c1NC(=O)c1cc2c(s1)-c1ccccc1N(C(=O)c1cccc(NC3CCS(=O)(=O)C3)n1)CC2` (stereo not drawn) [Example 438], the EC50 is less than 400 nM.

Consider `Cn1ccnc1NC(=O)c1cc2c(s1)-c1ccccc1N(C(=O)c1cccc(N3CCOc4ccccc4C3)n1)CC2` [Example 302], for which the EC50 is more than 800 nM.

As for `O=C(NC1CC1)c1cc2c(s1)-c1ccccc1N(C(=O)c1cccc(-c3cncc(N4CCOCC4)c3)n1)CC2` [Example 157], the half-maximal effective concentration (EC50) lay within 400 to 800 nM.

In the case of `COC1CCN(c2cccc(C(=O)N3CCc4cc(C(=O)NC5CC5)sc4-c4ccccc43)n2)CC1` [Example 21], the EC50 fell in the range of 400 to 800 nM.

For the molecule `N[C@H]1CCN(c2cccc(C(=O)N3CCc4cc(C(=O)NC5CC5)sc4-c4ccccc43)n2)C1` [Example 37], the EC50 is more than 800 nM.

Turning to `Cc1cccc(F)c1NC(=O)c1cc2c(s1)-c1ccccc1N(C(=O)c1cccc(N(C)CCN)n1)CC2` [Example 371], the EC50 was in the range of 400 to 800 nM.

`CNC(=O)n1cc(-c2cccc(C(=O)N3CCc4cc(C(=O)Nc5c(C)cccc5F)sc4-c4ccccc43)n2)c(C2CC2)n1` [Example 217]: the half-maximal effective concentration (EC50) was less than 400 nM.

In the case of `COCCN(c1cccc(C(=O)N2CCc3cc(C(=O)Nc4c(C)cccc4F)sc3-c3ccccc32)n1)C1CC1` [Example 471], the EC50 is less than 400 nM.

`O=C(NC1CC1)c1cc2c(s1)-c1ccccc1N(C(=O)c1cccc(-c3ccc(N4CCCC4)nc3)n1)CC2` [Example 80]: the EC50 was more than 800 nM.

On to `O=C(NC1CC1)c1ccc2c(c1)-c1ccccc1N(C(=O)c1cccc(N3CCCOCC3)n1)CC2` [Example 104], for which the EC50 was more than 800 nM.

Consider `Cc1cccc(F)c1NC(=O)c1cc2c(s1)-c1ccccc1N(C(=O)c1cccc(N(C)CCNC(=O)OC(C)(C)C)n1)CC2` [Example 370], for which the EC50 lay within 400 to 800 nM.

Take `COC(=O)n1cc(-c2ccc(C(=O)N3CCc4cc(C(=O)Nc5c(C)cccc5F)sc4-c4ccccc43)cc2)c2cccnc21` [Example 267]: the EC50 was more than 800 nM.

Consider `Cc1cccc(F)c1NC(=O)c1cc2c(s1)-c1ccccc1N(C(=O)c1ccc(NS(=O)(=O)c3cccnc3N3CC4(CCOCC4)C3)cc1)CC2` [Example 132], for which the EC50 was more than 800 nM.

Turning to `COCC(C)(C)CNc1cccc(C(=O)N2CCc3cc(C(=O)Nc4c(C)cccc4F)sc3-c3ccccc32)n1` [Example 421], the EC50 is less than 400 nM.

`O=C(NC1CC1)c1cc2c(s1)-c1ccccc1N(C(=O)c1ccc(CN3CCOCC3)cc1)CC2` [Example 1]: the EC50 was more than 800 nM.
